The results in this text go back to EPA's ToxRefDB 2.

The test system of data set [1] is rat. The settings on record: Combined chronic toxicity/carcinogenicity, fischer, Oral, Feed, dose end: 2 year, group: systemic.
For data set [2], the system named is rat. Particulars: Subchronic oral toxicity in rodents, fischer, Feed, dose end: 13 week.
Data set [3] has as its system mouse. Particulars: Subchronic oral toxicity in rodents, b6c3f1, Feed, dose end: 13 week, group: systemic.
Data set [4] concerns rat. Particulars: Multigenerational reproductive toxicity study, sprague dawley, Oral, Gavage/Intubation, dose end: 2 generation.
Data set [5] relates to rat. The settings on record: Multigenerational reproductive toxicity study, other, Oral, Gavage/Intubation, dose end: 2 generation.
The subject of data set [6] is mouse. The settings on record: Carcinogenicity, b6c3f1, Oral, Feed, dose end: 2 year, group: systemic.
Data set [7] has as its system rat. Particulars: Developmental neurotoxicity study, sprague dawley, Oral, Gavage/Intubation, dose end: 80 PND, group: cannot be grouped.
The subject of data set [8] is rat. The settings on record: Chronic toxicity; fischer; Oral; Feed; dose end: 130 week; group: systemic; systemic / pathology microscopic / liver / hypertrophy + systemic / pathology microscopic / liver / necrosis.
Data set [9] has as its system mouse. The settings on record: Chronic toxicity, [Not Reported], Oral, Feed, dose end: 104 week, group: systemic.
The subject of data set [10] is rat. The settings on record: Prenatal developmental toxicity study, other, Oral, Gavage/Intubation, dose end: 15 GD.
For data set [11], the system named is rat. The settings on record: Multigenerational reproductive toxicity study, wistar, Oral, Feed, dose end: 2 generation.
Data set [12] relates to rat. Particulars: Combined chronic toxicity/carcinogenicity, wistar, Oral, Feed, dose end: 24 month, group: systemic.
The next data set relates to rabbit. The settings on record: Prenatal developmental toxicity study, chinchilla, Oral, Gavage/Intubation, dose end: 18 GD.
Data set [13] deals with dog. Particulars: Chronic toxicity; beagle; Oral; Feed; dose end: 52 week; group: systemic; systemic / clinical chemistry / cholesterol / cholesterol + systemic / clinical chemistry / cytochrome p450, nos / cytochrome p450, nos.
Data set [14] concerns mouse. The settings on record: Carcinogenicity, b6c3f1, Oral, Feed, dose end: 24 month, group: systemic.
The test system of data set [15] is dog. Particulars: Subchronic oral toxicity in nonrodent, beagle, Feed, dose end: 14 week, group: systemic, systemic / organ weight / liver / absolute + systemic / organ weight / liver / relative to body weight.
For data set [16], the system named is rat. The settings on record: Subchronic oral toxicity in rodents, sprague dawley, Feed, dose end: 13 week, group: systemic, systemic / organ weight / uterus / relative to body weight.
Setting [17] is: systemic / pathology microscopic / kidney / hyaline droplet + systemic / pathology microscopic / kidney / pigmentation.
[18] abbreviates: group: maternal, reproductive / reproductive performance / estrous cycle / abnormal.
The mark [19] stands for this setting: group: systemic, systemic / hematology / erythrocyte (rbc) count differential / erythrocyte (rbc) + systemic / hematology / hematocrit (hct) / hematocrit (….
Setting [20] is: group: systemic, systemic / pathology microscopic / kidney / nephropathy + systemic / pathology microscopic / spleen / congestion + systemic / pathology ….
[21] abbreviates: systemic / in life observation / body weight / body weight gain.
[22] abbreviates: systemic / organ weight / liver / relative to body weight.
The mark [23] stands for this setting: group: offspring, systemic / in life observation / body weight / offspring (pup) weight + systemic / organ weight / brain / absolute + developmental / ….
The mark [24] stands for this setting: group: parental, systemic / in life observation / body weight / body weight + systemic / in life observation / clinical signs / drooping eyelids (ptosis) + ….
Setting [25] is: group: parental, systemic / in life observation / clinical signs / salivation + systemic / organ weight / kidney / relative to body weight + systemic / organ….
Where [26] appears, read: group: reproductive, reproductive / reproductive performance / gestational length / gestational length + reproductive / reproductive performance / implantations….
The mark [27] stands for this setting: group: reproductive, reproductive / reproductive performance / implantations / implantations.
[28] abbreviates: group: offspring, developmental / offspring survival late / viability index / viability index + developmental / developmental landmark / anogenital distance (….
[29] abbreviates: group: parental, systemic / clinical chemistry / thyroxine (t4) / thyroxine (t4), total + systemic / organ weight / kidney / absolute + systemic / organ ….
The mark [30] stands for this setting: group: parental, systemic / organ weight / liver / absolute + systemic / organ weight / liver / relative to body weight + systemic / organ weight / kidney / ….
Setting [31] is: systemic / pathology microscopic / lung / bronchiolization.
Setting [32] is: systemic / in life observation / body weight / body weight + reproductive / reproductive performance / mating / mating.
The mark [33] stands for this setting: systemic / in life observation / body weight / body weight + reproductive / reproductive performance / mating / mating + systemic / clinical….
The mark [34] stands for this setting: systemic / in life observation / food consumption / food consumption + systemic / organ weight / liver / absolute + systemic / organ weight….
Setting [35] is: group: developmental, developmental / developmental malformation / bone / wavy.
The mark [36] stands for this setting: group: maternal, systemic / in life observation / body weight / body weight gain.
[37] abbreviates: group: maternal, systemic / in life observation / body weight / body weight gain + systemic / in life observation / food consumption / food consumption.
Setting [38] is: group: offspring, systemic / in life observation / body weight / offspring (pup) weight.
[39] abbreviates: group: parental, systemic / in life observation / body weight / body weight gain.
Setting [40] is: systemic / pathology microscopic / thyroid gland / mineralization.
[41] abbreviates: systemic / pathology microscopic / thyroid gland / mineralization + systemic / in life observation / body weight / body weight + systemic / ….
The mark [42] stands for this setting: group: developmental, developmental / developmental malformation / bone / absent + developmental / developmental malformation / bone / fused + developmental / ….
The mark [43] stands for this setting: group: maternal, systemic / in life observation / body weight / body weight gain + reproductive / reproductive performance / aborted / aborted + reproductive….
The mark [44] stands for this setting: systemic / in life observation / body weight / body weight + systemic / in life observation / body weight / body weight gain + systemic / in….

Broadly, the LOAEL is the lowest tested level that showed an adverse finding. As a reminder, the NOAEL is the highest tested level that showed no adverse finding. Regarding `Cc1ccc([N+](=O)[O-])cc1` [4-Nitrotoluene], the LEL in the data set on rat [1] (setting [17]) amounted to 55 mg/kg/day; in the data set with rat [2] (setting [18]) it was 680 mg/kg/day; in the data set with rat [2] (setting [20]) it was 42 mg/kg/day; in the data set with mouse [3] (setting [22]), 131 mg/kg/day; with rat [4] (group: offspring, systemic / in life observation / body weight / offspring (pup) weight + systemic / organ weight / brain / absolute) it was 80 mg/kg/day; in the data set with rat [4] (setting [25]) it was 40 mg/kg/day. Besides, the LEL with rat [4] (setting [27]) was 40 mg/kg/day; with rat [5] (group: offspring, systemic / organ weight / brain / absolute) it was 80 mg/kg/day; in the data set on rat [5] (setting [30]) it was 40 mg/kg/day; in the data set with mouse [6] (setting [31]), 155 mg/kg/day. The NEL in the data set with rat [1] (setting [17]) was less than 55 mg/kg/day; with rat [2] (setting [18]), 335 mg/kg/day; in the data set with rat [2] (setting [20]) it was less than 42 mg/kg/day; in the data set with mouse [3] (setting [22]), less than 131 mg/kg/day; with rat [4] (group: offspring, systemic / in life observation / body weight / offspring (pup) weight + developmental / offspring survival late / viability index / …) it was 40 mg/kg/day; in the data set on rat [4] (setting [25]), less than 40 mg/kg/day. Further, the NEL in the data set with rat [4] (setting [27]) is less than 40 mg/kg/day; in the data set with rat [5] (setting [28]), 40 mg/kg/day; in the data set with rat [5] (setting [30]), less than 40 mg/kg/day; with mouse [6] (setting [31]), less than 155 mg/kg/day. Besides, the LOAEL was 110 mg/kg/day in the data set on rat [1] (systemic / pathology microscopic / spleen / hematopoietic cell proliferation + systemic / pathology microscopic / spleen / pigmentation); greater than 680 mg/kg/day with rat [2] (setting [18]); 335 mg/kg/day with rat [2] (setting [19]); 813 mg/kg/day in the data set with mouse [3] (setting [21]); greater than 160 mg/kg/day in the data set with rat [4] (setting [23]); greater than 160 mg/kg/day in the data set with rat [4] (setting [24]). In addition, the LOAEL in the data set with rat [4] (setting [26]) is greater than 160 mg/kg/day; in the data set with rat [5] (setting [28]), 160 mg/kg/day; in the data set on rat [5] (setting [29]), greater than 160 mg/kg/day; in the data set with mouse [6] (systemic / in life observation / body weight / body weight), 345 mg/kg/day. In addition, the NOAEL with rat [1] (systemic / pathology microscopic / spleen / hematopoietic cell proliferation + systemic / pathology microscopic / spleen / pigmentation + …) is 55 mg/kg/day; in the data set with rat [2] (setting [18]) it was no less than 680 mg/kg/day; with rat [2] (setting [19]), 164 mg/kg/day; with mouse [3] (systemic / in life observation / body weight / body weight gain + systemic / in life observation / food consumption / food consumption + …) it was 439 mg/kg/day; with rat [4] (setting [23]) it was no less than 160 mg/kg/day; with rat [4] (setting [24]) it was no less than 160 mg/kg/day. In addition, the NOAEL in the data set with rat [4] (setting [26]) was no less than 160 mg/kg/day; with rat [5] (group: offspring, developmental / offspring survival late / viability index / viability index + systemic / organ weight / brain / absolute), 80 mg/kg/day; in the data set with rat [5] (setting [29]), no less than 160 mg/kg/day; with mouse [6] (systemic / in life observation / body weight / body weight + systemic / pathology microscopic / lung / adenoma/carcinoma combined + systemic…) it was 170 mg/kg/day.
For the compound `ClC1=C(Cl)C2(Cl)C3C(Cl)C(Cl)CC3C1(Cl)C2(Cl)Cl` (stereo unspecified) [Chlordane, technical grade], the results for the LEL with rat [7] (setting [32]), with rat [8] and in the data set on mouse [9] (setting [34]) were 0.1 mg/kg/day, 0.045 mg/kg/day and 0.15 mg/kg/day, respectively. Further, the NEL was less than 0.1 mg/kg/day with rat [7] (setting [32]), less than 0.045 mg/kg/day with rat [8] and less than 0.15 mg/kg/day in the data set on mouse [9] (setting [34]). Moreover, the LOAEL in the data set with rat [7] (setting [33]) is greater than 5 mg/kg/day; with rat [8] it was 0.045 mg/kg/day; in the data set on mouse [9] (systemic / pathology microscopic / liver / degeneration + systemic / pathology microscopic / liver / necrosis), 0.75 mg/kg/day. The NOAEL was no less than 5 mg/kg/day in the data set on rat [7] (setting [33]), less than 0.045 mg/kg/day with rat [8] and 0.15 mg/kg/day in the data set on mouse [9] (systemic / pathology microscopic / liver / degeneration + systemic / in life observation / food consumption / food consumption + systemic / …).
For `O=[N+]([O-])/N=C1\NCCN1Cc1ccc(Cl)nc1` [Imidacloprid], the LEL in the data set with rat [10] (setting [35]) is 100 mg/kg/day; with rat [10] (setting [36]), 30 mg/kg/day; in the data set on rat [11] (setting [38]), 47.3 mg/kg/day; in the data set with rat [11] (setting [39]) it was 52.3 mg/kg/day; in the data set with rat [12] (setting [40]) it was 16.9 mg/kg/day; in the data set on rabbit (setting [42]), 72 mg/kg/day. In addition, the LEL in the data set on rabbit (setting [36]) was 24 mg/kg/day; in the data set on dog [13], 72 mg/kg/day; in the data set with mouse [14] (setting [21]), 208 mg/kg/day. The LOAEL in the data set with rat [10] (setting [35]) turned out to be 100 mg/kg/day; with rat [10] (setting [36]), 30 mg/kg/day; in the data set on rat [11] (setting [38]) it was 47.3 mg/kg/day; in the data set on rat [11] (setting [39]), 52.3 mg/kg/day; in the data set on rat [12] (setting [40]) it was 16.9 mg/kg/day; in the data set with rabbit (setting [42]), 72 mg/kg/day. The LOAEL in the data set on rabbit (group: maternal, systemic / in life observation / body weight / body weight gain + reproductive / reproductive performance / postimplantation loss / …) was 72 mg/kg/day; with dog [13], greater than 72 mg/kg/day; with mouse [14] (setting [44]) it was 414 mg/kg/day. Also, the NEL in the data set with rat [10] (setting [35]) is 30 mg/kg/day; in the data set on rat [10] (setting [37]) it was 10 mg/kg/day; in the data set with rat [11] (setting [38]), 16.5 mg/kg/day; with rat [11] (setting [39]), 18.9 mg/kg/day; in the data set with rat [12] (setting [41]), 5.7 mg/kg/day; with rabbit (setting [42]), 24 mg/kg/day. Also, the NEL in the data set on rabbit (setting [43]) came to 8 mg/kg/day; in the data set on dog [13], 15 mg/kg/day; in the data set with mouse [14] (setting [44]), 66 mg/kg/day. Moreover, the NOAEL was 30 mg/kg/day with rat [10] (setting [35]); 10 mg/kg/day in the data set on rat [10] (setting [37]); 16.5 mg/kg/day with rat [11] (setting [38]); 18.9 mg/kg/day with rat [11] (setting [39]); 5.7 mg/kg/day in the data set with rat [12] (setting [41]); 24 mg/kg/day in the data set with rabbit (setting [42]). Moreover, the NOAEL in the data set with rabbit (setting [43]) was 24 mg/kg/day; in the data set with dog [13] it was no less than 72 mg/kg/day; with mouse [14] (setting [44]), 208 mg/kg/day.
In the case of `CCN(CC)C(=O)C(C)Oc1cccc2ccccc12` (stereo unspecified) [Napropamide], in the data set on dog [15], the LEL came out at 100 mg/kg/day, the lowest-observed-adverse-effect level (LOAEL) was 100 mg/kg/day, the NEL worked out at 40 mg/kg/day and the NOAEL stood at 40 mg/kg/day. Also, in the data set with rat [16], the LEL turned out to be 50 mg/kg/day, the LOAEL was found to be 50 mg/kg/day, the NEL stood at 25 mg/kg/day and the NOAEL stood at 25 mg/kg/day.
